Results published in ChEMBL document CHEMBL5724914, “Linking interpersonal differences in gut microbiota composition and drug biotransformation activity” (2024).

Test: (§1) The drug is tested on Z-025 corresponding to rabbit gut metagenome with ENA study accession number: PRJEB37062 and ENA sample accession number: ERS12561824 for biotransformation under anaerobic condition. The drug concentrations were measured over 9 timepoints collected between 0 and 24 hours of incubation by liquid-chromatography-coupled mass spectrometry (LC–MS)
Conditions: 2 µM
Also: call rule not given here.

Row | Structure (SMILES) | Bacterial Biotransformation
1 | O=C1CN2Cc3c(ccc(Cl)c3Cl)N=C2N1 [ANAGRELIDE] | Compound NOT metabolized
2 | CN(C)C(=O)Oc1cc(OC(=O)N(C)C)cc(C(O)CNC(C)(C)C)c1 (stereo not given) [BAMBUTEROL] | Compound metabolized

Test: as §1, with “Z-023” for “Z-025”, “to” for “to rabbit gut”, “ERS12561822” for “ERS12561824”
Conditions: 2 µM

Row | Structure (SMILES) | Bacterial Biotransformation
3 | O=C1CN2Cc3c(ccc(Cl)c3Cl)N=C2N1 [ANAGRELIDE] | Compound metabolized
4 | CN(C)C(=O)Oc1cc(OC(=O)N(C)C)cc(C(O)CNC(C)(C)C)c1 (stereo not given) [BAMBUTEROL] | Compound metabolized

Test: as §1, with “Z-022” for “Z-025”, “mouse” for “rabbit”, “ERS12561821” for “ERS12561824”
Conditions: 2 µM

Row | Structure (SMILES) | Bacterial Biotransformation
5 | O=C1CN2Cc3c(ccc(Cl)c3Cl)N=C2N1 [ANAGRELIDE] | Compound metabolized
6 | CN(C)C(=O)Oc1cc(OC(=O)N(C)C)cc(C(O)CNC(C)(C)C)c1 (stereo not given) [BAMBUTEROL] | Compound metabolized

Test: as §1, with “Z-013” for “Z-025”, “ERS12561813” for “ERS12561824”
Conditions: 2 µM

Row | Structure (SMILES) | Bacterial Biotransformation
7 | O=C1CN2Cc3c(ccc(Cl)c3Cl)N=C2N1 [ANAGRELIDE] | Compound NOT metabolized
8 | CN(C)C(=O)Oc1cc(OC(=O)N(C)C)cc(C(O)CNC(C)(C)C)c1 (stereo not given) [BAMBUTEROL] | Compound NOT metabolized

Test: as §1, with “Z-009” for “Z-025”, “pig” for “rabbit”, “ERS12561809” for “ERS12561824”
Conditions: 2 µM

Row | Structure (SMILES) | Bacterial Biotransformation
9 | O=C1CN2Cc3c(ccc(Cl)c3Cl)N=C2N1 [ANAGRELIDE] | Compound NOT metabolized
10 | CN(C)C(=O)Oc1cc(OC(=O)N(C)C)cc(C(O)CNC(C)(C)C)c1 (stereo not given) [BAMBUTEROL] | Compound metabolized

Test: as §1, with “Z-007” for “Z-025”, “rat” for “rabbit”, “ERS12561807” for “ERS12561824”
Conditions: 2 µM

Row | Structure (SMILES) | Bacterial Biotransformation
11 | O=C1CN2Cc3c(ccc(Cl)c3Cl)N=C2N1 [ANAGRELIDE] | Compound NOT metabolized
12 | CN(C)C(=O)Oc1cc(OC(=O)N(C)C)cc(C(O)CNC(C)(C)C)c1 (stereo not given) [BAMBUTEROL] | Compound NOT metabolized

Test: as §1, with “Z-006” for “Z-025”, “mouse” for “rabbit”, “ERS12561806” for “ERS12561824”
Conditions: 2 µM

Row | Structure (SMILES) | Bacterial Biotransformation
13 | O=C1CN2Cc3c(ccc(Cl)c3Cl)N=C2N1 [ANAGRELIDE] | Compound NOT metabolized
14 | CN(C)C(=O)Oc1cc(OC(=O)N(C)C)cc(C(O)CNC(C)(C)C)c1 (stereo not given) [BAMBUTEROL] | Compound NOT metabolized

Test: as §1, with “Z-004” for “Z-025”, “to” for “to rabbit gut”, “ERS12561804” for “ERS12561824”
Conditions: 2 µM

Row | Structure (SMILES) | Bacterial Biotransformation
15 | O=C1CN2Cc3c(ccc(Cl)c3Cl)N=C2N1 [ANAGRELIDE] | Compound NOT metabolized
16 | CN(C)C(=O)Oc1cc(OC(=O)N(C)C)cc(C(O)CNC(C)(C)C)c1 (stereo not given) [BAMBUTEROL] | Compound metabolized

Test: as §1, with “WLS-350” for “Z-025”, “human” for “rabbit”, “ERS12561789” for “ERS12561824”
Conditions: 2 µM

Row | Structure (SMILES) | Bacterial Biotransformation
17 | O=C1CN2Cc3c(ccc(Cl)c3Cl)N=C2N1 [ANAGRELIDE] | Compound NOT metabolized
18 | CN(C)C(=O)Oc1cc(OC(=O)N(C)C)cc(C(O)CNC(C)(C)C)c1 (stereo not given) [BAMBUTEROL] | Compound metabolized

Test: as §1, with “WLS-073” for “Z-025”, “human” for “rabbit”, “ERS12561749” for “ERS12561824”
Conditions: 2 µM

Row | Structure (SMILES) | Bacterial Biotransformation
19 | O=C1CN2Cc3c(ccc(Cl)c3Cl)N=C2N1 [ANAGRELIDE] | Compound NOT metabolized
20 | CN(C)C(=O)Oc1cc(OC(=O)N(C)C)cc(C(O)CNC(C)(C)C)c1 (stereo not given) [BAMBUTEROL] | Compound NOT metabolized

Test: as §1, with “WLS-052” for “Z-025”, “human” for “rabbit”, “ERS12561747” for “ERS12561824”
Conditions: 2 µM

Row | Structure (SMILES) | Bacterial Biotransformation
21 | O=C1CN2Cc3c(ccc(Cl)c3Cl)N=C2N1 [ANAGRELIDE] | Compound metabolized
22 | CN(C)C(=O)Oc1cc(OC(=O)N(C)C)cc(C(O)CNC(C)(C)C)c1 (stereo not given) [BAMBUTEROL] | Compound NOT metabolized

Test: as §1, with “WLS-010” for “Z-025”, “human” for “rabbit”, “ERS12561743” for “ERS12561824”
Conditions: 2 µM

Row | Structure (SMILES) | Bacterial Biotransformation
23 | O=C1CN2Cc3c(ccc(Cl)c3Cl)N=C2N1 [ANAGRELIDE] | Compound metabolized
24 | CN(C)C(=O)Oc1cc(OC(=O)N(C)C)cc(C(O)CNC(C)(C)C)c1 (stereo not given) [BAMBUTEROL] | Compound NOT metabolized

Conditions: human gut metagenome, 24 h, 2 µM

Row | Structure (SMILES) | Bacterial Biotransformation
25 | O=C1CN2Cc3c(ccc(Cl)c3Cl)N=C2N1 [ANAGRELIDE] | Compound NOT metabolized
26 | CN(C)C(=O)Oc1cc(OC(=O)N(C)C)cc(C(O)CNC(C)(C)C)c1 (stereo not given) [BAMBUTEROL] | Compound metabolized

Conditions: human gut metagenome, 24 h, 2 µM
Remark: another data set of the same source

Row | Structure (SMILES) | Bacterial Biotransformation
27 | O=C1CN2Cc3c(ccc(Cl)c3Cl)N=C2N1 [ANAGRELIDE] | Compound metabolized
28 | CN(C)C(=O)Oc1cc(OC(=O)N(C)C)cc(C(O)CNC(C)(C)C)c1 (stereo not given) [BAMBUTEROL] | Compound metabolized

Conditions: human gut metagenome, 24 h, 2 µM
Remark: another data set of the same source

Row | Structure (SMILES) | Bacterial Biotransformation
29 | O=C1CN2Cc3c(ccc(Cl)c3Cl)N=C2N1 [ANAGRELIDE] | Compound NOT metabolized
30 | CN(C)C(=O)Oc1cc(OC(=O)N(C)C)cc(C(O)CNC(C)(C)C)c1 (stereo not given) [BAMBUTEROL] | Compound metabolized

Conditions: human gut metagenome, 24 h, 2 µM
Remark: another data set of the same source

Row | Structure (SMILES) | Bacterial Biotransformation
31 | O=C1CN2Cc3c(ccc(Cl)c3Cl)N=C2N1 [ANAGRELIDE] | Compound metabolized
32 | CN(C)C(=O)Oc1cc(OC(=O)N(C)C)cc(C(O)CNC(C)(C)C)c1 (stereo not given) [BAMBUTEROL] | Compound metabolized

Conditions: human gut metagenome, 24 h, 2 µM
Remark: another data set of the same source

Row | Structure (SMILES) | Bacterial Biotransformation
33 | O=C1CN2Cc3c(ccc(Cl)c3Cl)N=C2N1 [ANAGRELIDE] | Compound NOT metabolized
34 | CN(C)C(=O)Oc1cc(OC(=O)N(C)C)cc(C(O)CNC(C)(C)C)c1 (stereo not given) [BAMBUTEROL] | Compound metabolized

Conditions: human gut metagenome, 24 h, 2 µM
Remark: another data set of the same source

Row | Structure (SMILES) | Bacterial Biotransformation
35 | O=C1CN2Cc3c(ccc(Cl)c3Cl)N=C2N1 [ANAGRELIDE] | Compound NOT metabolized
36 | CN(C)C(=O)Oc1cc(OC(=O)N(C)C)cc(C(O)CNC(C)(C)C)c1 (stereo not given) [BAMBUTEROL] | Compound metabolized

Conditions: human gut metagenome, 24 h, 2 µM
Remark: another data set of the same source

Row | Structure (SMILES) | Bacterial Biotransformation
37 | O=C1CN2Cc3c(ccc(Cl)c3Cl)N=C2N1 [ANAGRELIDE] | Compound NOT metabolized
38 | CN(C)C(=O)Oc1cc(OC(=O)N(C)C)cc(C(O)CNC(C)(C)C)c1 (stereo not given) [BAMBUTEROL] | Compound NOT metabolized

Conditions: human gut metagenome, 24 h, 2 µM
Remark: another data set of the same source

Row | Structure (SMILES) | Bacterial Biotransformation
39 | O=C1CN2Cc3c(ccc(Cl)c3Cl)N=C2N1 [ANAGRELIDE] | Compound metabolized
40 | CN(C)C(=O)Oc1cc(OC(=O)N(C)C)cc(C(O)CNC(C)(C)C)c1 (stereo not given) [BAMBUTEROL] | Compound metabolized
